Test results: US20240399142A1, “Methods Of Using Alternating Electric Fields And Checkpoint Inhibitors” (NOVOCURE GMBH, priority 2023, published 2024)

Assay: LUNAR study safety: adverse events per CTCAE version 4.03, safety population
Assay type: in vivo, human
Procedure: Safety and treatment data were compiled from all patients who received any study therapy and were analyzed according to the actual treatment received. Analyses were performed using SAS software, version 9.4 (SAS Institute).

Compound: CC(=O)O[C@@]12CO[C@@H]1C[C@H](O)[C@@]1(C)C(=O)[C@H](O)C3=C(C)[C@@H](OC(=O)[C@H](O)[C@@H](NC(=O)OC(C)(C)C)c4ccccc4)C[C@@](O)([C@@H](OC(=O)c4ccccc4)[C@H]21)C3(C)C [Docetaxel, docetaxel]
- Alopecia (All grades): 22 (32.4) no. (%)
- Anemia (All grades): 19 (27.9) no. (%)
- Any adverse event (All grades): 61 (89.7) no. (%)
- Arthralgia (All grades): 7 (10.3) no. (%)
- Asthenia (All grades): 10 (14.7) no. (%)
- Back pain (All grades): 4 (5.9) no. (%)
- Constipation (All grades): 10 (14.7) no. (%)
- Cough (All grades): 11 (16.2) no. (%)
- Decreased appetite (All grades): 11 (16.2) no. (%)
- Dermatitis (All grades): 0 no. (%)
- Diarrhea (All grades): 12 (17.6) no. (%)
- Dysphagia (All grades): 1 (1.5) no. (%)
- Dyspnea (All grades): 19 (27.9) no. (%)
- Fatigue (All grades): 18 (26.5) no. (%)
- Headache (All grades): 6 (8.8) no. (%)
- Hypoalbuminemia (All grades): 8 (11.8) no. (%)
- Hypokalemia (All grades): 8 (11.8) no. (%)
- Hyponatremia (All grades): 4 (5.9) no. (%)
- Nausea (All grades): 10 (14.7) no. (%)
- Neutropenia (All grades): 15 (22.1) no. (%)
- Neutrophil count decreased (All grades): 6 (8.8) no. (%)
- Oedema peripheral (All grades): 9 (13.2) no. (%)
- Pleural effusion (All grades): 8 (11.8) no. (%)
- Pneumonia (All grades): 11 (16.2) no. (%)
- Pruritus (All grades): 0 no. (%)
- Pyrexia (All grades): 9 (13.2) no. (%)
- Rash (All grades): 2 (2.9) no. (%)
- Rash maculopapular (All grades): 3 (4.4) no. (%)
- Skin irritation (All grades): 0 no. (%)
- Upper respiratory tract infection (All grades): 1 (1.5) no. (%)
- Vomiting (All grades): 7 (10.3) no. (%)
- White blood cell count decreased (All grades): 7 (10.3) no. (%)
- Acute myocardial infarction (Grade 3): 0 no. (%)
- Adenocarcinoma of colon (Grade 3): 0 no. (%)
- Alanine aminotransferase increased (Grade 3): 1 (1.5) no. (%)
- Anemia (Grade 3): 8 (11.8) no. (%)
- Anemia macrocytic (Grade 3): 1 (1.5) no. (%)
- Any adverse event (Grade 3): 23 (33.8) no. (%)
- Arthralgia (Grade 3): 0 no. (%)
- Ascites (Grade 3): 0 no. (%)
- Aspergillus infection (Grade 3): 0 no. (%)
- Asthenia (Grade 3): 4 (5.9) no. (%)
- Atrial tachycardia (Grade 3): 1 (1.5) no. (%)
- Autoimmune colitis (Grade 3): 0 no. (%)
- Back pain (Grade 3): 0 no. (%)
- Blood bilirubin increased (Grade 3): 0 no. (%)
- Bone pain (Grade 3): 1 (1.5) no. (%)
- Bronchiolitis (Grade 3): 0 no. (%)
- Bronchitis (Grade 3): 0 no. (%)
- C-reactive protein increased (Grade 3): 0 no. (%)
- Cancer pain (Grade 3): 1 (1.5) no. (%)
- Cardiac failure congestive (Grade 3): 0 no. (%)
- Cardiac tamponade (Grade 3): 0 no. (%)
- Cardiac ventricular thrombosis (Grade 3): 0 no. (%)
- Cataract (Grade 3): 0 no. (%)
- Chest pain (Grade 3): 0 no. (%)
- Cholangitis (Grade 3): 1 (1.5) no. (%)
- Cholecystitis (Grade 3): 0 no. (%)
- Cholelithiasis (Grade 3): 0 no. (%)
- Clostridium bacteremia (Grade 3): 0 no. (%)
- Coronary artery disease (Grade 3): 0 no. (%)
- Decreased appetite (Grade 3): 0 no. (%)
- Dehydration (Grade 3): 1 (1.5) no. (%)
- Diarrhea (Grade 3): 0 no. (%)
- Diverticulitis (Grade 3): 0 no. (%)
- Drug hypersensitivity (Grade 3): 1 (1.5) no. (%)
- Encephalitis (Grade 3): 0 no. (%)
- Esophagitis (Grade 3): 0 no. (%)
- Euthanasia (Grade 3): 0 no. (%)
- Fatigue (Grade 3): 4 (5.9) no. (%)
- Febrile neutropenia (Grade 3): 3 (4.4) no. (%)
- Femoral neck fracture (Grade 3): 0 no. (%)
- Forced expiratory volume decreased (Grade 3): 1 (1.5) no. (%)
- Gastroenteritis norovirus (Grade 3): 1 (1.5) no. (%)
- Gastroenteritis salmonella (Grade 3): 0 no. (%)
- General physical health deterioration (Grade 3): 0 no. (%)
- Hematochezia (Grade 3): 0 no. (%)
- Hepatic enzyme increased (Grade 3): 0 no. (%)
- Hip fracture (Grade 3): 0 no. (%)
- Hypercalcemia (Grade 3): 0 no. (%)
- Hyperglycemia (Grade 3): 1 (1.5) no. (%)
- Hyperkalaemia (Grade 3): 0 no. (%)
- Hypertriglyceridaemia (Grade 3): 0 no. (%)
- Hypoalbuminemia (Grade 3): 1 (1.5) no. (%)
- Hypocalcaemia (Grade 3): 0 no. (%)
- Hypokalemia (Grade 3): 0 no. (%)
- Hyponatremia (Grade 3): 2 (2.9) no. (%)
- Ileus (Grade 3): 1 (1.5) no. (%)
- Infection (Grade 3): 0 no. (%)
- Intestinal dilatation (Grade 3): 1 (1.5) no. (%)
- Intestinal hemorrhage (Grade 3): 1 (1.5) no. (%)
- Intestinal perforation (Grade 3): 0 no. (%)
- Large intestine perforation (Grade 3): 0 no. (%)
- Leukopenia (Grade 3): 3 (4.4) no. (%)
- Liver disorder (Grade 3): 1 (1.5) no. (%)
- Localized oedema (Grade 3): 0 no. (%)
- Lung abscess (Grade 3): 0 no. (%)
- Lymphocyte count decreased (Grade 3): 0 no. (%)
- Lymphopenia (Grade 3): 0 no. (%)
- Malignant ascites (Grade 3): 1 (1.5) no. (%)
- Malignant pleural effusion (Grade 3): 1 (1.5) no. (%)
- Malnutrition (Grade 3): 0 no. (%)
- Metastases to bone (Grade 3): 0 no. (%)
- Metastases to central nervous system (Grade 3): 2 (2.9) no. (%)
- Metastases to meninges (Grade 3): 0 no. (%)
- Metastases to skin (Grade 3): 0 no. (%)
- Mouth ulceration (Grade 3): 0 no. (%)
- Mucosal inflammation (Grade 3): 1 (1.5) no. (%)
- Multiple organ dysfunction syndrome (Grade 3): 0 no. (%)
- Muscular weakness (Grade 3): 1 (1.5) no. (%)
- Myalgia (Grade 3): 0 no. (%)
- Myocardial infarction (Grade 3): 1 (1.5) no. (%)
- Nausea (Grade 3): 0 no. (%)
- Neck pain (Grade 3): 1 (1.5) no. (%)
- Neuropathy peripheral (Grade 3): 0 no. (%)
- Neutropenia (Grade 3): 1 (1.5) no. (%)
- Neutrophil count decreased (Grade 3): 2 (2.9) no. (%)
- Non-cardiac chest pain (Grade 3): 1 (1.5) no. (%)
- Oedema peripheral (Grade 3): 2 (2.9) no. (%)
- Oral candidiasis (Grade 3): 0 no. (%)
- Pancreatic failure (Grade 3): 1 (1.5) no. (%)
- Pancreatitis (Grade 3): 0 no. (%)
- Pericardial effusion (Grade 3): 0 no. (%)
- Peripheral sensory (Grade 3): 1 (1.5) no. (%)
- Platelet count decreased (Grade 3): 0 no. (%)
- Pneumonia (Grade 3): 7 (10.3) no. (%)
- Pneumonia pseudomonal (Grade 3): 0 no. (%)
- Pneumonia staphylococcal (Grade 3): 0 no. (%)
- Pyelonephritis (Grade 3): 0 no. (%)
- Pyopneumothorax (Grade 3): 1 (1.5) no. (%)
- Pyrexia (Grade 3): 0 no. (%)
- Refeeding syndrome (Grade 3): 1 (1.5) no. (%)
- Respiratory tract infection (Grade 3): 0 no. (%)
- Right ventricular failure (Grade 3): 1 (1.5) no. (%)
